Results reported in US9920035B2, “Heterocyclic compounds, medicaments containing said compounds, use thereof and processes for the preparation thereof” (Boehringer Ingelheim International GmbH, priority 2011, dated 2018).

Target: T1, epithelial sodium channel (ENaC) (Mus musculus, UniProt Q61180+Q9WU38+Q9WU39)
T1 construct: Mouse kidney M-1 cells were cultivated in DMEM containing 5% FCS and 5 μM dexamethasone; endogenous in cells; host or cells: mouse kidney M-1 cells
T1 sequence (Q61180 1-699): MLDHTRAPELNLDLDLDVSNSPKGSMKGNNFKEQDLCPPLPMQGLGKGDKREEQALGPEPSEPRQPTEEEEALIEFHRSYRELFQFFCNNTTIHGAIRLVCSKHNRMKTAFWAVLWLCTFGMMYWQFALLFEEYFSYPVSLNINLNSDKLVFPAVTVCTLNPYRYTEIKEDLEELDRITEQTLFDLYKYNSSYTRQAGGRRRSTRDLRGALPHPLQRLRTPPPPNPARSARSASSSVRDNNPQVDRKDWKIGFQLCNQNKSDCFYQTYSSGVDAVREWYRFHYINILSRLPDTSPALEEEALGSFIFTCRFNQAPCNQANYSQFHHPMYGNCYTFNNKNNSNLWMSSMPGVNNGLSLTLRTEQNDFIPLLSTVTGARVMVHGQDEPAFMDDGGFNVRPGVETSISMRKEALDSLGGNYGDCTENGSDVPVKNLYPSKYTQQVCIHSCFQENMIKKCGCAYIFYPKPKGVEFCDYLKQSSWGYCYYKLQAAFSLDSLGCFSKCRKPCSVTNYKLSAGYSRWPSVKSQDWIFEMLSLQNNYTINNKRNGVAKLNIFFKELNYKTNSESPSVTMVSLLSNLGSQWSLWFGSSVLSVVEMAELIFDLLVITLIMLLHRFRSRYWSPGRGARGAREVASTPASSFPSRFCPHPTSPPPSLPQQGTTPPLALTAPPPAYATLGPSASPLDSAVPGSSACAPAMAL
T1 sequence (Q9WU38 1-638): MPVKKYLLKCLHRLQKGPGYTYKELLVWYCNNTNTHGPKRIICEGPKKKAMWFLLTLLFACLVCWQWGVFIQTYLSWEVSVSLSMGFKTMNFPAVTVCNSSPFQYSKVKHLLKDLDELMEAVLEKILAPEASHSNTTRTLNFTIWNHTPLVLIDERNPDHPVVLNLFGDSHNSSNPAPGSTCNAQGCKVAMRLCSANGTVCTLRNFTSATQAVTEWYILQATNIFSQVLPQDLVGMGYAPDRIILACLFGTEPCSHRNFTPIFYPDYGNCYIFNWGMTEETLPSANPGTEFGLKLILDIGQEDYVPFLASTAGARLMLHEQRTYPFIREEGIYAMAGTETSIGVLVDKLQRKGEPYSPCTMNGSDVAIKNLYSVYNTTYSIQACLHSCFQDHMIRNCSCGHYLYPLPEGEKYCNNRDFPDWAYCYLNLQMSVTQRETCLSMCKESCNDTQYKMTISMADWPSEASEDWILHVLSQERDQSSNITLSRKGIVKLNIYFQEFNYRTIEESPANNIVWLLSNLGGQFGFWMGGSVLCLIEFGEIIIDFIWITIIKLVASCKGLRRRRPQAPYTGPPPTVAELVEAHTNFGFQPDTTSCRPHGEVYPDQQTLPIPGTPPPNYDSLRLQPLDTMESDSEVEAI
T1 sequence (Q9WU39 1-655): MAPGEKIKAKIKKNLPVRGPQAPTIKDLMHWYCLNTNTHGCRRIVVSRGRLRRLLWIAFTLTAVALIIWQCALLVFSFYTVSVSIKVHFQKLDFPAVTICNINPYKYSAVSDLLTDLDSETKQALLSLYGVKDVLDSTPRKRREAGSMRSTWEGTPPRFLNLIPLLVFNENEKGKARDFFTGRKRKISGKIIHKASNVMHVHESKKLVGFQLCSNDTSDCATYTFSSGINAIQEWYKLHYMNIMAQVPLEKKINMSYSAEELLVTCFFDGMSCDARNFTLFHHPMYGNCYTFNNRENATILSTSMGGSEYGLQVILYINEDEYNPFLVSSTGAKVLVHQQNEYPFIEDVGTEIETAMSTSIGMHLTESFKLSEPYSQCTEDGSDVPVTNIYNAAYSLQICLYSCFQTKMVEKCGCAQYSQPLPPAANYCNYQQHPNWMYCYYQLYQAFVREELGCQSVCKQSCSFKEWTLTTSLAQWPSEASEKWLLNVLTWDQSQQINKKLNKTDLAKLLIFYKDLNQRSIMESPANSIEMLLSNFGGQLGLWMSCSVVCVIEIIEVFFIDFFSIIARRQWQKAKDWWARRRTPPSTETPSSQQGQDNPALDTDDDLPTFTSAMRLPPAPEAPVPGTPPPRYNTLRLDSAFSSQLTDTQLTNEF
Experiment: Ussing chamber: inhibition of amiloride sensitive short circuit current (I_sc) in M-1 cells
Format: cell-based
Conditions: Mouse kidney M-1 cells on transwell filters, Ussing chamber at 37° C., compound added to the apical solution
Description: Mouse kidney M-1 cells were cultivated in DMEM containing 5% FCS and 5 μM dexamethasone for 10 to 12 days on polyester transwell filters. Filters were inserted into a teflon-coated well-plate which fit into the in-house ussing chamber system. Prior to measurement the medium of M-1 cells was replaced with Caco-2 transport buffer (Invitrogen, Germany). During measurements, the Ussing chamber temperature was kept at 37° C. Short circuit currents (I_sc) were measured in the voltage-clamp mode using an in-house built amplifier (Boehringer Ingelheim, Biberach) with the software package Lab View for data acquisition and analysis. The transepithelial electrical resistance (TEER) was determined by the application of voltage steps of ±5 mV every 5 sec. Compounds were administered at a final concentration of 3 μM or at increasing concentrations (1-3-10 μM) to the apical solution. At the end of each experiment the amiloride sensitive I_SC was measured by adding 3 μM amiloride to the apical compartment. Results are expressed as inhibition in percent of the amiloride effect or as IC50. Results are listed in tables 1 to 5 and further examples listed above.

| SMILES | IC50 [nM] |
| --- | --- |
| CN(C)CCCN1CCC(CNC(N)=NC(=O)c2nc(Cl)c(N)nc2N)(Cc2ccccc2)CC1 [Example 1.31] | 287 |
| CN(C)CCN1CCC(CCc2ccccc2)(CNC(N)=NC(=O)c2nc(Cl)c(N)nc2N)CC1 [Example 1.32] | 46 |
| CC(C)(C)OC(=O)NCCNC(=O)N1CCC(CCc2ccccc2)(CNC(N)=NC(=O)c2nc(Cl)c(N)nc2N)CC1 [Example 1.33] | 7 |
| CC(C)(C)OC(=O)NCCCNC(=O)N1CCC(CCc2ccccc2)(CNC(N)=NC(=O)c2nc(Cl)c(N)nc2N)CC1 [Example 1.34] | 10 |
| CC(C)(C)OC(=O)NCCCNC(=O)N1CCC(CNC(N)=NC(=O)c2nc(Cl)c(N)nc2N)(Cc2ccccc2)CC1 [Example 1.36] | 18 |
| CC(C)(C)OC(=O)NCCCN1CCC(CNC(N)=NC(=O)c2nc(Cl)c(N)nc2N)(Cc2ccccc2)CC1 [Example 1.37] | 64 |
| CN(C)CCCNC(=O)N1CCC(CNC(N)=NC(=O)c2nc(Cl)c(N)nc2N)(Cc2ccccc2)CC1 [Example 1.38] | 42 |
| CN(C)CCN1CCC(CNC(N)=NC(=O)c2nc(Cl)c(N)nc2N)(Cc2ccccc2)CC1 [Example 1.41] | 91 |
| CC(C)(C)OC(=O)N1CCC(CNC(N)=NC(=O)c2nc(Cl)c(N)nc2N)(c2ccccc2)CC1 [Example 1.42] | 25 |
| CC(C)NC(=O)N1CCC(CNC(N)=NC(=O)c2nc(Cl)c(N)nc2N)(c2ccccc2)CC1 [Example 1.43] | 41 |
| CC(C)NC(=O)N1CCC(CNC(N)=NC(=O)c2nc(Cl)c(N)nc2N)(c2ccc3c(c2)OCO3)CC1 [Example 1.44] | 46 |
| COc1ccccc1C1(CNC(N)=NC(=O)c2nc(Cl)c(N)nc2N)CCN(C(=O)OC(C)(C)C)CC1 [Example 1.45] | 66 |
| COC(=O)CCC(=O)N1CCC(CNC(N)=NC(=O)c2nc(Cl)c(N)nc2N)(c2ccccc2)CC1 [Example 1.47] | 29 |
| CN(C)CC(=O)N1CCC(CCc2ccccc2)(CNC(=N)NC(=O)c2nc(Cl)c(N)nc2N)CC1 [Example 1.48] | 130 |
| C[N+](C)(C)CC(=O)N1CCC(CCc2ccccc2)(CNC(N)=NC(=O)c2nc(Cl)c(N)nc2N)CC1 [Example 1.49] | 22 |
| C[N+](C)(C)CCCC(=O)N1CCC(CCc2ccccc2)(CNC(N)=NC(=O)c2nc(Cl)c(N)nc2N)CC1 [Example 1.50] | 15 |
| CN1CCN(C(=O)N2CCC(CCc3ccccc3)(CN/C(N)=N/C(=O)c3nc(Cl)c(N)nc3N)CC2)CC1 [Example 1.53] | 14 |
| COC(=O)CCC(=O)N1CCC(CCc2ccccc2)(CN/C(N)=N/C(=O)c2nc(Br)c(N)nc2N)CC1 [Example 10, 4-{4-[N′-(3,5-Diamino-6-bromo-pyrazine-2-carbonyl)-guanidinomethyl]-4-phenethyl-piperidin-1-yl}-4-oxo-butyric acid methyl ester] | 32 |
| N/C(=N\C(=O)c1nc(Br)c(N)nc1N)NCC1(CCc2ccccc2)CCN(C(=O)CCC(=O)O)CC1 [Example 11, 4-{4-[N′-(3,5-Diamino-6-bromo-pyrazine-2-carbonyl)-guanidinomethyl]-4-phenethyl-piperidin-1-yl}-4-oxo-butyric acid] | 502 |

Other lines, results leading:

| IC50 [nM] | SMILES |
| --- | --- |
| 394 | COC(=O)c1ccc(CCC2(CNC(N)=NC(=O)c3nc(Cl)c(N)nc3N)CCNCC2)cc1 [Example 2.1] |
| 19 | NCCC(=O)N1CCC(CCc2ccccc2)(CNC(N)=NC(=O)c2nc(Cl)c(N)nc2N)CC1 [Example 2.2] |
| 23 | NCCCCC(=O)N1CCC(CCc2ccccc2)(CNC(N)=NC(=O)c2nc(Cl)c(N)nc2N)CC1 [Example 2.3] |
| 65 | NCCCN1CCC(CCc2ccccc2)(CNC(N)=NC(=O)c2nc(Cl)c(N)nc2N)CC1 [Example 2.5] |
| 28 | NCCCNC(=O)N1CCC(CCc2ccccc2)(CNC(N)=NC(=O)c2nc(Cl)c(N)nc2N)CC1 [Example 2.6] |
| 16 | NCCNC(=O)N1CCC(CCc2ccccc2)(CNC(N)=NC(=O)c2nc(Cl)c(N)nc2N)CC1 [Example 2.7] |
| 61 | NCCCCC(=O)N1CCC(CNC(N)=NC(=O)c2nc(Cl)c(N)nc2N)(Cc2ccccc2)CC1 [Example 2.8] |
| 93 | NCCC(=O)N1CCC(CNC(N)=NC(=O)c2nc(Cl)c(N)nc2N)(Cc2ccccc2)CC1 [Example 2.9] |
| 200 | COc1ccccc1C1(CNC(N)=NC(=O)c2nc(Cl)c(N)nc2N)CCNCC1 [Example 2.10] |
| 55 | NC(=NC(=O)c1nc(Cl)c(N)nc1N)NCC1(Cc2ccccc2)CCNCC1 [Example 2.11] |
| 17 | NCCNC(=O)N1CCC(CNC(N)=NC(=O)c2nc(Cl)c(N)nc2N)(Cc2ccccc2)CC1 [Example 2.12] |
| 25 | NCCCNC(=O)N1CCC(CNC(N)=NC(=O)c2nc(Cl)c(N)nc2N)(Cc2ccccc2)CC1 [Example 2.13] |
| 120 | NCCCN1CCC(CNC(N)=NC(=O)c2nc(Cl)c(N)nc2N)(Cc2ccccc2)CC1 [Example 2.14] |
| 40 | NC(=NC(=O)c1nc(Cl)c(N)nc1N)NCC1(CCc2ccccc2)CCN(C(=O)CCC(=O)O)CC1 [Example 3.1] |
| 149 | NC(=NC(=O)c1nc(Cl)c(N)nc1N)NCC1(CCc2ccccc2)CCN(C(=O)NCCC(=O)O)CC1 [Example 3.2] |
| 10.1 | NC(=NC(=O)c1nc(Cl)c(N)nc1N)NCC1(CCc2ccccc2)CCN(C(=O)NCC(=O)O)CC1 [Example 3.3] |
| 12 | N=C(N)NCCC(=O)N1CCC(CCc2ccccc2)(CNC(N)=NC(=O)c2nc(Cl)c(N)nc2N)CC1 [Example 4.1] |
| 18 | N=C(N)NCCCCC(=O)N1CCC(CCc2ccccc2)(CNC(N)=NC(=O)c2nc(Cl)c(N)nc2N)CC1 [Example 4.2] |
| 27 | C[N+](C)(C)CCCNC(=O)N1CCC(CCc2ccccc2)(CNC(N)=NC(=O)c2nc(Cl)c(N)nc2N)CC1 [Example 5.1] |
| 74 | COC(=O)c1ccc(CCC2(CNC(N)=NC(=O)c3nc(Cl)c(N)nc3N)CCN(C(=O)NCC[N+](C)(C)C)CC2)cc1 [Example 5.2] |
| 52 | C[N+]1(C)CCC(NC(=O)N2CCC(CCc3ccccc3)(CNC(N)=NC(=O)c3nc(Cl)c(N)nc3N)CC2)CC1 [Example 5.5] |
| 97 | N/C(=N\C(=O)c1nc(Cl)c(N)nc1N)NCC1(CCc2ccccc2)CCN(C(=O)NCCCCCCNC(=O)N2CCC(CCc3ccccc3)(CN/C(N)=N/C(=O)c3nc(Cl)c(N)nc3N)CC2)CC1 [Example 6.1] |
